Experimental findings from publication PMC6962373, “Combinatorial allosteric modulation of agonist response in a self-interacting G-protein coupled receptor” (Communications Biology, 2020) are described below.

Read-outs that look alike come from different tables or passages of the source.

What all share (assay type): cell-based, human
Test [1] has as its system HEK293 S1PR1 expressing cells. Briefly: EGF-mediated ERK1/2 phosphorylation in HEK293 S1PR1 expressing cells (inhibitor specificity control). As to conditions: CCG215022 50 µM, 20 nM EGF for 5 min. Here is the method:
HEK293 cells were plated in 96 multi-well plates and grown until 90% confluent. After the S1P-starvation, the cell monolayers were treated as described in the text and then processed using the ERK1/2 (pT202/Y204 + Total) ELISA Kit from Abcam (cat n. ab176660), following the manufacturer guidelines and adding the HALT™ Proteases & Phosphatases inhibitor cocktail (Thermo Fisher Scientific) to the lysis buffer provided with the kit. To quantify pERK1/2 and total ERK, 40 µg and 5 µg of total protein extract were used from each well, respectively. The chromogenic signals were read at the Sunrise Tecan multi-plate reader and expressed as pERK/ERKTotal signal ratio. […] AKT phosphorylation was quantified by ELISA as above in cell lysates after 5 min stimulation, with the AKT (pS473 + Total) ELISA Kit from Abcam (cat. n. ab176657).
Supplementary Figure 2 | Effects of S1PR1 overexpression in HEK293 cells. […]
20 nM EGF for 5 min. pERK1/2 or pAKT were measured in the cell extracts by ELISA and expressed as relative units; n=12 independent experiments. […]
(§1) ELISA and expressed as relative units; n=3 independent experiments. […]
without 30 min pre-treatment with 100 µM ML056. Cell extracts were then analysed in immunoblotting for S1PR1, ERK1/2 and pERK1/2.

Test [2] relates to HEK293 S1PR1 expressing cells. Kind of test: AKT phosphorylation ELISA in HEK293 S1PR1 expressing cells. As to conditions: 0.1 µM S1P or FTY720-P for 5 min, PTX 300 ng/mL, CCG215022 50 µM. On the procedure: HEK293 cells were plated in 96 multi-well plates and grown until 90% confluent. […] To quantify pERK1/2 and total ERK, 40 µg and 5 µg of total protein extract were used from each well, respectively. The chromogenic signals were read at the Sunrise Tecan multi-plate reader and expressed as pERK/ERKTotal signal ratio. […] AKT phosphorylation was quantified by ELISA as above in cell lysates after 5 min stimulation, with the AKT (pS473 + Total) ELISA Kit from Abcam (cat. n. ab176657). […]
pertussis toxin (PTX) for 18 hours and with 0.1% DMSO alone or with 50 µM CCG215022 […]
20 nM EGF for 5 min. pERK1/2 or pAKT were measured in the cell extracts by ELISA and expressed as relative units; n=12 independent experiments. (b) HEK293 cells expressing […]
as §1
Background: An ELISA detects its analyte on a solid surface through an enzyme-linked reagent.

The subject of test [3] is HEK293 cells expressing S1PR1. Kind of test: ERK1/2 phosphorylation ELISA/immunoblot in HEK293 cells expressing S1PR1. Here is the method: (§2) Human embryonic kidney-293 (HEK293, ATCC CRL-1573) cells were routinely maintained in complete DMEM/F12 1:1 mixture (Sigma Aldrich) containing 10% FBS and 0.5 mM N-acetyl cysteine. Mycoplasma detection was performed routinely by checking for cytoplasmic DNA and every six months with Universal Mycoplasma Detection Kit (ATCC 30–1012 K). The stop-less coding sequences of either wild-type S1PR1 or mS1PR1 (without the additional modifications present in the constructs for the protein production) were obtained from GeneArt (Thermo Fisher Scientific) and inserted into the HindIII/BamHI-digested pEGFP-N1 vector (Takara) to express S1PR1- and mS1PR1-eGFP. The pEFGP-N1-S1PR1 or pEFGP-N1-mS1PR1 plasmids were further modified by re-introducing the TAG stop codon at the 3′ end of the S1PR1 open reading frame to express untagged S1PR1 or mS1PR1, respectively, using the primer pair 5’-[…]-3’ and 5′-[…]-3′. Cell monolayers were transfected with JetPEI™ (Polyplus) and the appropriate plasmid vectors. Transfected cell cultures were passed once a week for three times and then the GFP^+ cells were sorted in a MoFlo XDP (Beckman Coulter). Sorted cell cultures were expanded and sorted again and the expression of the desired chimeric protein verified by immunoblot. Sorting was performed at the Flow Cytometry Resourc, Advanced Cytometry Technical Applications Laboratory of IRCCS San Raffaele Scientific Institute.
(§3) Two hundred nanomole of S1PR1/L of culture medium were used at […] receptor concentration. Under sterile conditions, purified receptor was first dialysed three times against the serum-free medium. Medium-equilibrated S1PR1 was then incubated 24 h at +4 °C in complete culture medium. The depletion procedure was performed twice for each lot of culture medium. […] The depleted medium was also used to prepare 1000× stock solutions of each of the two S1PR1 agonists or the GRK inhibitor CCG215022, and the 10× ML056 stock solution used in the cell-based experiments.
(§4) HEK293 cells were plated in 96 multi-well plates and grown until 90% confluent. […] To quantify pERK1/2 and total ERK, 40 µg and 5 µg of total protein extract were used from each well, respectively. The chromogenic signals were read at the Sunrise Tecan multi-plate reader and expressed as pERK/ERKTotal signal ratio. […] AKT phosphorylation was quantified by ELISA as above in cell lysates after 5 min stimulation, with the AKT (pS473 + Total) ELISA Kit from Abcam (cat. n. ab176657).

The test system of test [4] is HEK293 cells expressing S1PR1-eGFP. Kind of test: Confocal microscopy count of cytosolic eGFP+ clusters (receptor internalisation), S1PR1-eGFP. As to conditions: 0.1 µM, 20 min. On the procedure: (§5) Cells expressing S1PR1-eGFP or mS1PR1-eGFP were plated onto poly-L-lysine-coated 8 well µ-slides (Ibidi) at 3 × 10^4 cell/well. […] Images were deconvoluted using Huygens Professional Software (Scientific Volume Imaging). Mid-plane z-sections were used for counting cytosolic GFP^+ vesicles in cells stimulated for 20 min. Confocal imaging was performed at the Advanced Light and Electron Microscopy Bioimaging Centre of IRCCS San Raffaele Scientific Institute. We used a custom Matlab script (Supplementary Data 1) performing the following image analysis: (i) the membranes were segmented from the image, identifying regions of both absolute and local high intensity (Supplementary Fig. 9A–G) in order to include all the membranes independently of their intensity; (ii) morphological erosion was used to clear small objects and to smooth the edges of the identified membranes (Supplementary Fig. 9H, I); (iii) the region of interest was defined as the region completely enclosed by a membrane (Supplementary Fig. 9J, K); (iv) GFP^+ cytosolic vesicles were identified as local intensity maxima (Supplementary Fig. 9L–O) within the region of interest and counted. Experiments were replicated independently three times. The number of vesicles from 40 to 150 cells were counted as detailed in Fig. 4 legend and the statistical analysis performed with the GraphPad Prism software.

In test [5] the test system is HEK293 cells expressing mS1PR1. Kind of test: ERK1/2 phosphorylation ELISA/immunoblot in HEK293 cells expressing mS1PR1. As to conditions: for change of potency in stimulating ERK phosphorylation, mS1PR1 vs S1PR1 clones / maximal pERK response in mS1PR1 vs S1PR1 clones: 5 min stimulation, 1 pM–1 mM ligand. Here is the method:
95% CI are reported in Supplementary Fig. 4.
as §2, §3, §4

The test system of test [6] is HEK293 cells expressing mS1PR1-eGFP. Briefly: Anti-GFP immunoprecipitation of mS1PR1-eGFP, immunoblot for β-arrestin 1/2 and ERK1/2. As to conditions: 0.1 µM, co-immunoprecipitation. Here is the method: (§6) Cells were washed twice in ice-cold phosphate-buffered saline and lysed in 20 mM HEPES, 150 mM NaCl, 1% Triton X-100, 0.15% Nonidet P-40, 1× HALT™ Proteases and Phosphatases inhibitor cocktail, 1.25 U/mL Benzonase. Clarified lysates were incubated for 1 h at +4 °C with GFP-Trap® resin (Chromotek) and extensively washed with lysis buffer. Finally, the immunopurified material was eluted in 4% SDS and analysed by immunoblot. The equal loading was based on the GFP amount reading the samples in the Cary Eclipse Varian spectrofluorometer with 488 nm λEx and 509 nm λEm. In some experiments, cells expressing S1PR1 without the GFP tag were used as control and the equal loading was based on total protein concentration measured with the BCA method (G Biosciences).
(In general: A western blot detects proteins with antibodies after separation by electrophoresis.)

Test [7] has the same test system. Kind of test: Fluorescence-based analysis of S1PR1 down-modulation, mS1PR1-eGFP. The settings on record: 4 h-long treatment.
Method: (§7) Cells were washed twice in ice-cold phosphate-buffered saline and lysed in 20 mM HEPES, 150 mM NaCl, 1% Triton X-100, 0.15% Nonidet P-40, 1× HALT™ Proteases & Phosphatases inhibitor cocktail, 1.25 U/mL Benzonase. Lysates were clarified were used and 50 µg of total protein from each sample were read in the Cary Eclipse Varian spectrofluorometer with 488 nm λEx and 509 nm λEm to measure the eGFP amount.
For test [8], the system named is HEK293 cells expressing S1PR1-eGFP. Briefly: Fluorescence-based analysis of S1PR1 down-modulation, S1PR1-eGFP. As to conditions: 4 h-long treatment.
Method: as §7
Test [9] shares this test system. Kind of test: Anti-GFP immunoprecipitation of S1PR1-eGFP, immunoblot for β-arrestin 1/2 and ERK1/2. The settings on record: 0.1 µM, co-immunoprecipitation; for S1PR1 binding to β-arrestins in the late signalling phase: 30 min. On the procedure: as §6
Test [10] deals with HEK293 cells expressing mS1PR1-eGFP. Briefly: Confocal microscopy count of cytosolic eGFP+ clusters (receptor internalisation), mS1PR1-eGFP. As to conditions: 0.1 µM, 20 min. On the procedure:
as §5

On to `CC1=C(C(=O)Nc2ccc3[nH]ncc3c2)C(c2ccc(F)c(C(=O)NCc3ccccn3)c2)NC(=O)N1` (centres unmarked) [CCG215022], for which the “effect on EGF-mediated ERK1/2 phosphorylation” value in test [1] was “does not inhibit”. In addition, the “effect on AKT phosphorylation” value in test [2] is on record as “not modified”.

Turning to `CCCCCCCCc1ccc(CC[C@](N)(CO)COP(=O)(O)O)cc1` [FTY720-P, FTY720 (S)-phosphate], the “time at which pERK1/2 response decreased to the baseline level” value in test [3] (0.1 µM agonist) turned out to be 20 min. Besides, in test [3] (0.1 µM agonist, S1P-starved cells), the “time of early pERK1/2 peak” value is on record as 5 min. For the same compound, in test [4], the “number of clusters/cell, 95% CI” value is reported as 9.9–14.1 clusters/cell. In addition, the “pERK1/2 kinetics in mS1PR1 cells” value in [5] (0.1 µM agonist) is listed as “stable level of ERK1/2 phosphorylation”. Besides, in [5], the “change of potency in stimulating ERK phosphorylation, mS1PR1 vs S1PR1 clones” value was “ten-fold decrease of their potency” and the “maximal pERK response in mS1PR1 vs S1PR1 clones” value is “not affected”. For the same compound, the “stable interaction of mS1PR1 with β-arrestin” value in test [6] is on record as “neither S1P nor FTY720-P were capable to induce a stable interaction”. The “mS1PR1 level in cell lysates (receptor degradation)” value in test [7] is given as “remained stable”. Moreover, the “S1PR1 level in cell lysates (receptor degradation)” value in test [8] is listed as “barely detectable”. In test [9], the “S1PR1 binding to β-arrestins in the late signalling phase” value is recorded as “stable binding to β-arrestins” and the “ERK1/2 recruited onto activated S1PR1” value was “did not show an increase of the interaction with ERK1/2 above baseline levels”. The “effect on AKT phosphorylation” value in test [2] was “induced”. Also, the “number of clusters/cell, 95% CI” value in test [10] is on record as 8.7–11 clusters/cell.

Take `CCCCCCc1cccc(NC(=O)[C@H](N)CCP(=O)(O)O)c1` [ML056]: the “effect on agonist-induced signalling response (pERK1/2)” value in test [3] (30 min pre-treatment with 100 µM ML056, then 0.1 µM S1P, immunoblot) is listed as “abrogated”.

Take `CCCCCCCCCCCCC/C=C/[C@@H](O)[C@@H](N)COP(=O)(O)O` [S1P, Sphingosine 1-phosphate]: in test [3], the “pERK1/2 still detectable after 60 min, % of its maximal value” is 50% and the “time of early pERK1/2 peak” value is given as 5 min. The “number of clusters/cell, 95% CI” value in [4] was 6.7–10.2 clusters/cell. In test [5], the “change of potency in stimulating ERK phosphorylation, mS1PR1 vs S1PR1 clones” value is listed as “ten-fold decrease of their potency” and the “maximal pERK response in mS1PR1 vs S1PR1 clones” value was “not affected”. The “stable interaction of mS1PR1 with β-arrestin” value in [6] is “neither S1P nor FTY720-P were capable to induce a stable interaction”. Moreover, in test [9], the “S1PR1 binding to β-arrestins in the late signalling phase” value is recorded as “only a limited interaction” and the “ERK1/2 recruited onto activated S1PR1” value is recorded as “recruited more ERK1/2”. Further, the “effect on AKT phosphorylation” value in test [2] was “induced”. The “number of clusters/cell, 95% CI” value in test [10] is 5.7–7.7 clusters/cell.

Take pertussis toxin: in test [3] (300 ng/mL pertussis toxin for 18 h, then 0.1 µM agonist), the “effect on S1P- and FTY720-P-induced ERK1/2 phosphorylation” value is “undetectable”. Moreover, the “effect on agonist-induced ERK phosphorylation in mS1PR1-expressing clones” value in test [5] (300 ng/mL PTX, stimulation with either agonist) was “reduced the ERK phosphorylation to basal”. Besides, the “effect on AKT phosphorylation” value in test [2] is reported as “abolishes”.
